Results published in patent US10254290B2, “Systems and methods for identifying protein stabilizers” (The University of Kansas, priority 2012, dated 2019).

Assays:
[1] = target: T1, dihydrofolate reductase (DHFR) (Homo sapiens, UniProt P00374); assay: Control experiment: biotinylated GroEL chaperonin on a BLI substrate dipped into a DHFR solution; assay type: binding
T1 sequence (P00374 1-187): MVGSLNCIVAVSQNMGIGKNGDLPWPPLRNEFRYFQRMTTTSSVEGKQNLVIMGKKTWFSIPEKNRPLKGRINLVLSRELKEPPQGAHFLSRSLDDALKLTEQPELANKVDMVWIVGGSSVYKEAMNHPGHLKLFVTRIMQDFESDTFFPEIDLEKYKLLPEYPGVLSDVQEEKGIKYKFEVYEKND
Excerpt: The chaperonin can bind particular target proteins as they transiently expose hydrophobic surfaces from their partially folded forms. The partitioning kinetics can be followed using the BLI high throughput system (Fortebio Octet™) or SPR or other suitable technology. With BLI as an example, the chaperonin can be attached to the BLI tip substrate to dip into a target protein solution. Alternatively, the capture protein and/or target protein can be attached to the BLI tip substrate to dip into a chaperonin solution. The chaperonin will bind with transitioned target proteins (e.g., second conformation), but has no or low binding with folded target proteins (e.g., first conformation). […] Potential protein stabilizers can be screened to see which ones inhibit the chaperonin from binding to the target protein by the stabilizer retaining the protein in the first conformation. In the presence of a potential protein stabilizer, the partitioning kinetic amplitudes show significant declines (e.g., inhibition of partitioning) or even abolish global partitioning, which is scored as a potential lead compound. Once identified, potential protein stabilizer compounds can be further tested with target proteins in secondary screens. […]

[2] = target: CFTR (Homo sapiens, UniProt P13569); assay: BLI chaperonin (GroEL) binding to antibody-captured CFTR, with or without stabilizer (scheme of FIG. 9); details: compared with chaperonin alone and buffer signal
Excerpt: In one embodiment, a linker antibody (e.g., anti-mouse antibody) can be attached to the substrate, which is then introduced to a capture antibody (e.g., CFTR antibody), and which is then introduced to a target protein (e.g., cystic fibrosis transmembrane conductance regulator, CFTR). In some instances the capture antibody can be linked directly to the substrate or through a suitable linker. However, the linker antibody can position the capture antibody a suitable distance from the substrate by antibody extension. If no stabilizer is present, a chaperonin (e.g., GroEL) can bind with the target protein to provide a large signal.
As shown, a substrate 202 has an anti-mouse antibody 906 bound thereto. Then, a CFTR antibody 908 is associated with the anti-mouse antibody 906. CFTR 910 is then introduce to and bound with the CFTR antibody 908 before a chaperonin 914 (e.g., GroEL) is introduced to the CFTR/CFTR antibody complex. […] When there is no stabilizer C, the chaperonin 514 binds with the CFTR/CFTR antibody complex to form complex 920 and to produce a large signal. When the stabilizer C is present, there is a decreased binding signal to indicate that the chaperonin cannot bind with the CFTR/CFTR antibody complex. […]

[3] = target: CFTR-NBD1 (Homo sapiens, UniProt P13569); assay: GroEL binding to CFTR-NBD1 bound directly to the substrate; details: CFTR-NBD1 introduced to GTP prior to GroEL
Excerpt: Additionally, the CFTR nucleotide binding domain (e.g., CFTR-NBD1) may be bound directly to the substrate, which is then introduced to a GroEL buffer. […] When the CFTR-NBD1 is not introduced to GTP prior to being introduced to GroEL, there is a much higher single. Other substances besides GTP can also be screen to identify inhibitors of forming the CFTR-NBD1/GroEL complex.

[4] = target: GroEL chaperonin (Escherichia coli, UniProt P0A6F5); assay: Binding of the substance to the chaperonin itself
Chain of GroEL chaperonin (P0A6F5 2-548): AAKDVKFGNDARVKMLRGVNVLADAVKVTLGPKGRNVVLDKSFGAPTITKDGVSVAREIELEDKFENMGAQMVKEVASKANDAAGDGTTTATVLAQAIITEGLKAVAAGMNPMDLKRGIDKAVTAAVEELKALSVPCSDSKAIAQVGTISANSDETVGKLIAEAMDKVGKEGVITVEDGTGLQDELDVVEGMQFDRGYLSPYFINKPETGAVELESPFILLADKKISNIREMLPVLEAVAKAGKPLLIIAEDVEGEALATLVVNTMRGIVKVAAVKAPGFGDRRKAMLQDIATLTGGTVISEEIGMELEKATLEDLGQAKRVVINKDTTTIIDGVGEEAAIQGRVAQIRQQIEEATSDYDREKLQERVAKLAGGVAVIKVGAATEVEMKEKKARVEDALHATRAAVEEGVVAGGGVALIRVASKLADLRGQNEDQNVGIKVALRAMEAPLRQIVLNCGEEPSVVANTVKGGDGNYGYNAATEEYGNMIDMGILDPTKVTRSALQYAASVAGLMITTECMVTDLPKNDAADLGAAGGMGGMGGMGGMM

Chain of CFTR-NBD1 (P13569 423-646 limits assumed): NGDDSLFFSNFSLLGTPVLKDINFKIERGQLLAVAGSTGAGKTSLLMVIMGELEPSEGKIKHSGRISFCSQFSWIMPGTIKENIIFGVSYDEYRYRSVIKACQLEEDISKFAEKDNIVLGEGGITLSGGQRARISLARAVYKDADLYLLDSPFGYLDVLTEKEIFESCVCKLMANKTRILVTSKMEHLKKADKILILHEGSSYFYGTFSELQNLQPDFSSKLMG
Chain of CFTR (P13569 whole entry, species assumed): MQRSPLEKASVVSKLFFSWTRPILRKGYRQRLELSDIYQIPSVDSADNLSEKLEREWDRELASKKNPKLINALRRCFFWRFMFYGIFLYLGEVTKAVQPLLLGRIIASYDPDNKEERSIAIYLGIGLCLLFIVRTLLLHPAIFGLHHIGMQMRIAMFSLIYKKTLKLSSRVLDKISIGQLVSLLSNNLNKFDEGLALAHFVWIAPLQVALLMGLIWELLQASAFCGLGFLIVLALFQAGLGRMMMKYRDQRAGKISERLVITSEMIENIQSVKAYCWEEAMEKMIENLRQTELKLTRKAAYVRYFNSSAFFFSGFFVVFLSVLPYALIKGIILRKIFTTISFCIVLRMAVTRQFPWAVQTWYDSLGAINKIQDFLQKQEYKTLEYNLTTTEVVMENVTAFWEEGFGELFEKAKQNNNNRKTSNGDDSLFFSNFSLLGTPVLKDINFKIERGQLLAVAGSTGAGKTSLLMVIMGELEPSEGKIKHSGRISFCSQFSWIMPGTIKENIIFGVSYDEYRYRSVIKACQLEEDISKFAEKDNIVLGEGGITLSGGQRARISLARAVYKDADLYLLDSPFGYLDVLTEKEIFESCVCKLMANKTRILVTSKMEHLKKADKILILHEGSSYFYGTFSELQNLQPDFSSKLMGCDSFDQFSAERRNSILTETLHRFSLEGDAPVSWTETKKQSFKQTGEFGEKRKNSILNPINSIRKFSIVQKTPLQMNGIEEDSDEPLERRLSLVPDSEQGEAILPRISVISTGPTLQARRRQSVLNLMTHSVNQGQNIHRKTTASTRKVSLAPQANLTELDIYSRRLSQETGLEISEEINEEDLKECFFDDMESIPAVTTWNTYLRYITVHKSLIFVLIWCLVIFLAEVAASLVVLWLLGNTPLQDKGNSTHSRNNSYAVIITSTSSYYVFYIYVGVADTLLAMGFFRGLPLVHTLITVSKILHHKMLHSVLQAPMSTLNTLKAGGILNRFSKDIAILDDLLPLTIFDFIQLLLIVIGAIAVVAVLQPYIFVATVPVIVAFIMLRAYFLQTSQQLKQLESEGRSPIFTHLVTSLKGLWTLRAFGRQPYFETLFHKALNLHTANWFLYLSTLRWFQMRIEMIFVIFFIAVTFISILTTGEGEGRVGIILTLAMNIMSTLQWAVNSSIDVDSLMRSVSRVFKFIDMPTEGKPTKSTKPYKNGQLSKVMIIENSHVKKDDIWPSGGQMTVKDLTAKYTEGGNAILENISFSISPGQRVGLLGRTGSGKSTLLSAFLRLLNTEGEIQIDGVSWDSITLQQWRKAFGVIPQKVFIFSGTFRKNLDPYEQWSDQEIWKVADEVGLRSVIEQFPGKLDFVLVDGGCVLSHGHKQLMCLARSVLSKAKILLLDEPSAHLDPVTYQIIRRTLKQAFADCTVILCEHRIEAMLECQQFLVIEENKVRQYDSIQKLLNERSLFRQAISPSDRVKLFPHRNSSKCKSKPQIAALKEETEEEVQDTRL

| signal of GroEL-DHFR interaction ([1]; BLI, NADPH e.g. 10 mM) | signal of GroEL-DHFR interaction, combination ([1]; combination of GroEL and DHFR and 10 mM NADPH) | Compound | chaperonin binding signal (stabilization of CFTR) [2] | signal of GroEL binding to CFTR-NBD1 [3] | binding to the GroEL chaperonin [4] |
| --- | --- | --- | --- | --- | --- |
| decrease the signal | further reduce the signal | NC(=O)C1=CN([C@@H]2O[C@H](COP(=O)(O)OP(=O)(O)OC[C@H]3O[C@@H](n4cnc5c(N)ncnc54)[C@H](OP(=O)(O)O)[C@@H]3O)[C@@H](O)[C@H]2O)C=CC1 [NADPH] |  |  |  |
|  |  | Nc1nc2c(ncn2[C@@H]2O[C@H](COP(=O)(O)OP(=O)(O)OP(=O)(O)O)[C@@H](O)[C@H]2O)c(=O)[nH]1 [GTP, guanosine triphosphate] | decreased the chaperonin binding and decreased the signal | no signal or a low single | does not bind |
